Measured values published in patent US20240033278A9, “CONJUGATE GROUP AND CONJUGATE” (MEDSHINE DISCOVERY INC., priority 2020, published 2024).
pKd: −log10 of the molar value.

Biological target: T1, human-derived anti-asialoglycoprotein receptors (ASGPR) (Homo sapiens, UniProt P07306)
T1 construct: purchased Sino Biological 10773-H07H
T1 sequence (P07306 1-291): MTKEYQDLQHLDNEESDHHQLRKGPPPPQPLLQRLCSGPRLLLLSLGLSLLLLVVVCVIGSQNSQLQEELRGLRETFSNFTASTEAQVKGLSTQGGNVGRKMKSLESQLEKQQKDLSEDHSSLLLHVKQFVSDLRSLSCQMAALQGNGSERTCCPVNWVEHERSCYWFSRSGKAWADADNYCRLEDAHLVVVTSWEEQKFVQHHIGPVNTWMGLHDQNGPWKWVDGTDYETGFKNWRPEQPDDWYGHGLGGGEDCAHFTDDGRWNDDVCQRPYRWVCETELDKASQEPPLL
Experiment: Binding affinity of the compound to human-derived ASGPR by surface plasmon resonance (SPR)
Description: Assay Example 1. Test of the Binding Affinity of the Compound to Human-Derived […]
The binding affinity of the compound to human-derived […] (ASGPR) was tested by surface plasmon resonance (SPR) technique, and the kinetic KD value of the compound was used as an indicator to evaluate the binding affinity of the compound to ASGPR, thereby reflecting the ability of the compound to specifically target hepatocytes for delivery of nucleic acid molecules.
Asialoglycoprotein Receptor Protein, Mouse, Recombinant (His Tag), Sino biological-50083-M07H-50 μg; Asialoglycoprotein Receptor Protein, Human, Recombinant (His Tag), Sino biological-10773-H07H-50 μg
3.1 The two proteins were respectively dissolved in 1×PBS to obtain a solution of 0.25 mg/mL, and the compound to be tested was dissolved in DMSO. The running buffer (10 mM HEPES, 150 mM NaCl, 0.05% Tween 20, 50 mM CaCl2, 50 μM EDTA) was prepared and filtered through a 0.22 μm membrane.
3.2 The NiHC 1500M Chip was docked into a biacore, and the system was switched to a running buffer.
3.3 Protein labeling: The chip was first treated with 350 mM EDTA at 30 μl/min for 5 min, rinsed with running buffer for 2 min, and then bound with 40 mM NiCl2 at 30 μl/min for 2 min. A protein diluted to 5 μg/mL with running buffer was then labeled on the chip at a flow rate of 10 μl/min for a final labeling amount of 1500-2000 RU.
3.4 The instrument system was switched to a running buffer containing 2% DMSO.
3.5 The compound with a starting concentration of 2 μM was serially diluted 2-fold with a running buffer containing 2% DMSO to obtain 9 concentrations. The final concentration of DMSO was 2%.
3.6 Testing: For each cycle, the compound was bound for 60 s and dissociated for 180 s at a flow rate of 50 μl/min. The compound was tested in order of concentration from low to high. Before the gradient testing of the compound, 4 cycles of blank (running buffer with 2% DMSO) were introduced, and solvent correction was performed with 1.5%-3.5% DMSO (6 concentrations).
The data were analyzed with Biacore Insight Evaluation Software, kinetics was analyzed with a 1:1 model, and affinity was analyzed with a steady state affinity model.

- binding affinity in the SPR assay (in words) (SPR): good binding affinity
- pKd (SPR (Biacore 8k), kinetic KD, 1:1 model, His-tagged recombinant protein on NiHC 1500M chip): 7.81
- kon (SPR, association rate constant, 1:1 model, read-out: Ka): 1.08e+06 M⁻¹ s⁻¹
- koff (SPR, dissociation rate constant, 1:1 model): 0.0168 s⁻¹
Structure (SMILES): COc1ccc(C(OC[C@@H]2C[C@@H](O)CN2C(=O)CCCCCCCCCCOCC(COCCC(=O)NCCCNC(=O)CCCCOC2OC(CO)C(O)C(O)C2NC(C)=O)(COCCC(=O)NCCCNC(=O)CCCCOC2OC(CO)C(O)C(O)C2NC(C)=O)NC(=O)CCC(=O)NCCCNC(=O)CCCCOC2OC(CO)C(O)C(O)C2NC(C)=O)(c2ccccc2)c2ccc(OC)cc2)cc1 (stereo partly drawn) [Compound D-01-M]
